The source of these data is article PMC11990615 (Molecules, 2025).

The term inhibition denotes the share of the control response that was lost under treatment. By IC50 is commonly meant the concentration that gives 50% inhibition. For orientation: pKa means the pH at which an ionisable group is half protonated.

The subject of data set [1] is Colletotrichum gloeosporioides. Put plainly: Fungicidal activity, mycelial growth inhibition on PDA plates. The note with it: for Inhibition rate: at a concentration of 26.5 μmol/L; for inhibition at 26.5 µM: read-out: Inhibition rate; for IC50: mycelial growth, 96 h dark incubation at 26 °C.
Method: Pure water was used as a negative control. Mycelial plugs with a diameter of 5 mm were positioned in the middle of PDA plates that held various sample concentrations. Every treatment was carried out three times. […] The formula used to compute the suppression of mycelial growth was inhibition (%) = (Dc − Dt)/(Dc − 5) × 100%, where Dc and Dt are the diameters in millimeters of the treatment colony and the control colony, respectively. […] The tests, in turn, constructed t-statistics and determined the signifi-cance of differences between groups.
A short description of data set [2]: Photostability under UV irradiation (photolysis kinetics). As to conditions: aqueous solution 26.6 μmol/L, 15 W UV lamp 254 nm, 25 °C; for half-life at 26.6 μmol/L: read-out: t1/2, photolysis half-life (converted). It is filed as physicochemical. The method, then:
Photostability evaluation. […] At different time intervals (0, 0.5, 1, 1.5, 2, 3, 4, and 6 h), 100 μL of the solutions was accurately removed from the vials, diluted tenfold with methanol, and analyzed by HPLC-MS/MS. Instrument specifications are detailed in the Supporting Information.
As dark controls, aluminum foil-wrapped quartz tubes were used to prevent the impact of outside variables. […] The coefficient of determination r^2 was used to describe the goodness of fit of the curves. The half-lives t1/2 of the chemicals were calculated by the following formula:(2) t1/2=−ln(0.5)/K

The nature of data set [3]: Octanol-water partition coefficient, shake-flask method. In kind it is physicochemical. The note with it: n-octanol/water, 25 °C. The method, then:
Initially, a n-octanol solution containing 2000 mg/L of the compound was mixed with water in centrifuge tubes at 1:2, 1:1, and 2:1 volume ratios, with two parallel samples for each ratio. All tubes were shaken at a constant temperature of 25 °C for 3 h. Subsequently, the samples were centrifuged at 4000 rpm for 10 min. The octanol and aqueous phases were then carefully collected and diluted tenfold with methanol, and their concentrations were measured using HPLC-UV and HPLC-MS/MS, respectively. Instrument specifications are detailed in the Supporting Information.

Data set [4] concerns aquatic organisms. Further details: method as in earlier work. The note with it: cited from earlier work.
Data set [5] is described as follows: Interfacial surface tension, Wilhelmy plate method. In kind it is physicochemical. As to conditions: saturated aqueous solution, 25 °C; no unit printed with the values (method: mN/m). The method, then:
Pure water’s surface tension was used to calibrate the device. After cleaning and drying, the sensing platinum plate was slowly oriented perpendicular to the solution interface. The plate will stop when the liquid surface tension and other relevant forces reach a balance. The interfacial surface tension values of the test chemicals were noted. Each compound was determined with three parallel samples.

On the set-up of data set [6]: method as in earlier work. The note with it: cited from earlier work.
For data set [7] the following is noted: weak base; no reference given; cited from earlier work.
Where [8] appears, read: Colletotrichum gloeosporioides, 96 h.

Values joined by “and” are separate entries in the source; they are usually repeats but may differ in a detail not shown here. Identical values can stand only once.

`CC(=O)O` [Acetic acids, Acetic acid]: the Inhibition rate in data set [1] turned out to be 8.3 ± 2.3%.
Take `O=C(O)c1ccccc1` [Benzoic acids, Benzoic acid]: in data set [1] (Colletotrichum gloeosporioides), the inhibition at 26.5 µM is 7.2 ± 1.2%.
The same measure, in the same setting: the value for `O=C(O)/C=C/c1ccccc1` [Cinnamic acids, Cinnamic acid] was 7.5 ± 2.4%; that for `CC(O)C(=O)O` (stereo not shown) [Lactic acids, Lactic acid] was 6 ± 1%.
On the same count and under the same terms, in the case of `CCCCCCCCC(=O)O` [Nonanoic acids, Nonanoic acid] it was 1.8 ± 1.3%; in that of `CCCCCCCC/C=C\CCCCCCCC(=O)O` [Oleic acids, Oleic acid], 3.4 ± 1.3%.
With `CCCN(CCOc1c(Cl)cc(Cl)cc1Cl)C(=O)n1ccnc1` [Prochloraz, N-propyl-N-(2,4,6-trichlorophenoxy)ethyl-imidazole-1-carboxamide], in data set [2], the “K, first-order photolysis rate constant” value is 0.641 h⁻¹ and the half-life at 26.6 μmol/L is 1.08 h. The compound further returned a logKow in data set [3] of 3.52. Also, in data set [1] (setting [8]), the IC50 was 1.39 µM and 0.52 µg/mL. Further, in data set [1] (Colletotrichum gloeosporioides), the inhibition at 26.5 µM turned out to be 100 ± 0.1%. Besides, the “Concentrations at which embryonic mortality and developmental effects were observed” value in data set [4] was 2.4 µg/mL and 4.8 µg/mL. This compound also came in with an Interfacial surface tension in data set [5] of 51.75. In addition, the “Photolysis half-life in water” value in data set [6] is 36 h. In data set [7], the pKa is recorded as 3.8.
Take `CC(=O)C(=O)O` [Pyruvic acids, Pyruvic acid]: the inhibition at 26.5 µM in data set [1] (Colletotrichum gloeosporioides) was found to be 4.5 ± 0.4%.
On the same count and under the same terms, the value for `O=C(O)c1ccccc1O` [Salicylic acids, Salicylic acid] was 4.5 ± 0.3%.
On to `O=C([O-])c1ccccc1O.[Na+]` [Sodium Salicylate], for which the Inhibition rate in data set [1] is reported as 2.0 ± 2.7%.
`CC(=O)[O-].[Na+]` [Sodium acetate] had an Inhibition rate in data set [1] of 5.9 ± 0.5%.
Still for that read-out and setting: the value for `O=C([O-])c1ccccc1.[Na+]` [Sodium benzoate] was 3.0 ± 1.1%.
The same measure, in the same setting: in the case of `O=C([O-])/C=C/c1ccccc1.[Na+]` [Sodium cinnamate] it was 2.8 ± 1.1%; in that of `CC(O)C(=O)[O-].[Na+]` (stereo not shown) [Sodium lactate], 4.0 ± 0.4%; in that of `CCCCCCCCC(=O)[O-].[Na+]` [Sodium nonanoate], 2.9 ± 0.3%.
Still for that read-out and setting: in the case of `CCCCCCCC/C=C\CCCCCCCC(=O)[O-].[Na+]` [Sodium oleate] it was 3.9 ± 2.6%.
Compound `CC(=O)C(=O)[O-].[Na+]` [Sodium pyruvate] showed an Inhibition rate in data set [1] of 3.5 ± 0.2%.
In the case of `CC(=O)O.CCCN(CCOc1c(Cl)cc(Cl)cc1Cl)C(=O)n1ccnc1` [[Pro][AceA]] [listing 1 of 2 here], in data set [2], the half-life at 26.6 μmol/L is 1.73 h. Also, in data set [1] (setting [8]), 0.53 mg/L corresponded to half-maximal inhibition (IC50).
With `CC(=O)O.CCCN(CCOc1c(Cl)cc(Cl)cc1Cl)C(=O)n1ccnc1` [[Pro][AceA]] [listing 2 of 2 here], the “K, first-order photolysis rate constant” value in data set [2] was determined as 0.400 h⁻¹. The compound further showed an IC50 in data set [1] of 1.22 µM.
With `CCCN(CCOc1c(Cl)cc(Cl)cc1Cl)C(=O)n1ccnc1.O=C(O)c1ccccc1` [[Pro][BenA]] [listing 1 of 2 here], the half-life at 26.6 μmol/L in data set [2] was 0.9 h. This compound also had a 50% inhibitory concentration (IC50) in data set [1] (setting [8]) of 1.04 mg/L.
Take `CCCN(CCOc1c(Cl)cc(Cl)cc1Cl)C(=O)n1ccnc1.O=C(O)c1ccccc1` [[Pro][BenA]] [listing 2 of 2 here]: the “K, first-order photolysis rate constant” value in data set [2] is 0.774 h⁻¹. The compound further had an IC50 in data set [1] of 2.09 µM.
Turning to `CCCN(CCOc1c(Cl)cc(Cl)cc1Cl)C(=O)n1ccnc1.O=C(O)/C=C/c1ccccc1` [[Pro][CinA]], the “K, first-order photolysis rate constant” value in data set [2] was 0.305 h⁻¹. In addition, in data set [1], the IC50 was 2 µM and 1.05 mg/L.
With `CC(O)C(=O)O.CCCN(CCOc1c(Cl)cc(Cl)cc1Cl)C(=O)n1ccnc1` [[Pro][LacA]] [listing 1 of 2 here], the half-life at 26.6 μmol/L in data set [2] was 1.77 h. In data set [1] (setting [8]), this compound displayed a concentration for half-maximal inhibition (IC50) of 0.81 mg/L.
Take `CC(O)C(=O)O.CCCN(CCOc1c(Cl)cc(Cl)cc1Cl)C(=O)n1ccnc1` [[Pro][LacA]] [listing 2 of 2 here]: the “K, first-order photolysis rate constant” value in data set [2] is 0.391 h⁻¹. In data set [1], the IC50 came to 1.74 µM.
With `CCCCCCCCC(=O)O.CCCN(CCOc1c(Cl)cc(Cl)cc1Cl)C(=O)n1ccnc1` [[Pro][NonA]], in data set [2], the “K, first-order photolysis rate constant” value amounted to 0.438 h⁻¹ and the “t1/2, photolysis half-life” value was found to be 1.58 h. Further, the Interfacial surface tension in data set [5] is 41.24.
With `CCCCCCCCC=CCCCCCCCC(=O)O.CCCN(CCOc1c(Cl)cc(Cl)cc1Cl)C(=O)n1ccnc1` [[Pro][OleA]], the “K, first-order photolysis rate constant” value in data set [2] is 0.552 h⁻¹. The compound also yielded an IC50 in data set [1] of 1.33 mg/L. The compound further registered an Interfacial surface tension in data set [5] of 42.53.
With `CCCN(CCOc1c(Cl)cc(Cl)cc1Cl)C(=O)n1ccnc1` [[Pro][OleA]], the midpoint of inhibition in data set [1], the IC50, lay at 2.02 µM. That is a single-digit micromolar value.
Regarding `CC(=O)C(=O)O.CCCN(CCOc1c(Cl)cc(Cl)cc1Cl)C(=O)n1ccnc1` [[Pro][PyrA]], in data set [2], the “K, first-order photolysis rate constant” value was 0.383 h⁻¹ and the “t1/2, photolysis half-life” value was found to be 1.81 h.
For the compound `CCCN(CCOc1c(Cl)cc(Cl)cc1Cl)C(=O)n1ccnc1.O=C(O)c1ccccc1O` [[Pro][SalA]] [listing 1 of 2 here], the half-life at 26.6 μmol/L in data set [2] is 1.73 h. For the same compound, the IC50 in data set [1] (setting [8]) was determined as 1 mg/L.
Regarding `CCCN(CCOc1c(Cl)cc(Cl)cc1Cl)C(=O)n1ccnc1.O=C(O)c1ccccc1O` [[Pro][SalA]] [listing 2 of 2 here], the “K, first-order photolysis rate constant” value in data set [2] was determined as 0.401 h⁻¹. In addition, the half-maximal inhibitory concentration (IC50) in data set [1] was 1.94 µM.
